# Assay: TR-FRET Assay: To identify novel antagonists of RORgammaT, an assay was developed which employs the interaction of RORgammaT with its co-activator peptide SRC1_2. This peptide mimics the recruitment of co-activators to RORgammaT through its interaction with the LXXLL (SEQ ID NO:1) (e.g., NR box) motifs (Xie et al., J. Immunol. 175: 3800-09, 2005; Kurebayashi et al., Biochem. Biophys. Res. Commun. 315: 919-27, 2004; Jin et al., Mol. Endocrinology 24:923-29, 2010). The RORγ-Ligand Binding Domain TR-FRET Assay was run according to the following protocol.HIS-tagged RORγ-LBD protein was expressed in SF9 cells using a baculovirus expression system. The RORγ-LBD protein was purified by […] chromatography. Separately, SF9 cells not expressing any recombinant protein were lysed and the lysate was added to the purified RORγ-LBD at 0.25 ul lysate (from 10,000 SF9 cells)/nM purified protein. The mixture was then diluted in assay buffer (50 mM Tris pH 7.0, 50 mM KCl, 1 mM EDTA, 0.1 mM DTT) to obtain RORγ-LBD final concentration of 3 nM in 384-well assay plate. Compounds to be tested were injected to the assay plate using Acoustic Droplet Ejection technology by Echo 550 liquid handler (Labcyte, Calif.). A stock of biotinylated-LXXLL peptide from coactivator SRC1 (Biotin-[…]) (SEQ ID NO:2) was prepared in assay buffer and added to each well (100 nM final concentration). […]
row,IC50,SMILES
1,343 nM,CC1(C)CC(c2nn(C(=O)c3c(Cl)cccc3C(F)(F)F)c3cccc(F)c23)=CC[C@H]1C(=O)O
2,21 nM,CC1(C(=O)O)CC=C(c2nn(C(=O)c3c(Cl)cccc3C(F)(F)F)c3cccc(F)c23)CC1 (configuration not stated)

# — ChEMBL document CHEMBL5725235, “3-cyclohexenyl and cyclohexyl substituted indole and indazole compounds as RORgammaT inhibitors and uses thereof” (2016)
